From publication PMC7915858, “Complementary Effects of Carbamylated and Citrullinated LL37 in Autoimmunity and Inflammation in Systemic Lupus Erythematosus” (International Journal of Molecular Sciences, 2021)

What was measured:
pDCs = settings: LL37 citrullinated at all five arginines; cited from earlier work
Excerpt: LL37 is able to activate innate immune cells and B-cells after forming complexes with nucleic acids in a special molecular conformation, suitable for TLR stimulation. PDCs, as well as B-cells, are both activated by LL37-DNA or LL37-RNA complexes.

[1] = test system: native LL37-P1-specific T-cells (HLA-DRB1*1501 tetramer); settings: SLE PBMC culture, tetramers of HLA-DR1, HLA-DR15 or HLA-DRB5; cited from earlier work
Excerpt: We have performed here similar experiments in SLE patients expressing the HLA-DR15 (HLA-DRB1*1501) and/or the DR16 alleles. Since both HLA-DR15- and HLA-DR16-positive individuals co-express DRB5 [[2 ...

human DNA = test: Binding of peptides to DNA by EMSA; settings: 2% agarose gel
Procedure: Human DNA was extracted from PBMCs, as reported and was fragmented by sonication. Five milligrams of DNA in a volume of 300 μL were fragmented using the Sonics Vibra Cell sonicator (Newtown, CT, USA), with the following settings: 2, 4 and 10 sonication cycles (30 s on, 30 s off, in ice) to obtain DNA fragment sizes between 100 and 1000 bp. The resulting size distribution was controlled by 2% agarose gel electrophoresis.
EMSA was performed by mixing various μM concentrations of LL37 or carb-LL37 or cit-LL37 (or AMP S100A8, as negative control), with appropriate concentration of DNA, which respected the appropriate protein–DNA ratio used in pDC-stimulation assays. DNA alone and the mixtures were run on a 2% agarose gel to evidence the delay in migration of the DNA, due to the binding to the tested proteins. DNA on the gel was visualized by with SYBR Safe DNA gel staining (ThermoFisher Scientific).

[2] = test system: SLE-affected kidney biopsies; test: Confocal microscopy of SLE renal biopsies; set-up: species or system human; settings: antibody RRB640, lupus nephritis class IV
Procedure: Paraffin-included SLE renal biopsies were obtained from Policlinico Umberto I, Rome, IT. Biopsies were de-paraffinized in xylene (5 min, two times), followed by passages in: absolute ethanol (3 min), 95% ethanol in water (3 min), 80% ethanol in water (3 min), 70% ethanol in water (3 min) and antigen retrieval (5 min at 95 °C in 10 mM sodium citrate, pH 6.0). […] Slides were washed three times for 3 min under agitation with washing buffer and incubated with donkey anti-mouse or anti-rabbit secondary antibody, conjugated with AlexaFluor 647, Alexa Fluor 568 or 594 or AlexaFluor 488 (Abcam, Cambridge, UK) depending on the combinations of markers analyzed (in humidified chamber). Slides were washed again in washing buffer and mounted in Prolong Gold anti-fade media containing a DNA dye (DAPI) (Molecular Probes), before analysis with a confocal microscope, objectives 20× or 40× and 60× in oil immersion. Images were taken by a FV1000 confocal microscope (Olympus, Tokyo, Japan), using a Olympus planapo objective 40× or 60× oil A.N. 1,42. Excitation light was obtained by a Laser Dapi 408 nm for DAPI, an Argon Ion Laser (488 nm) for FITC (Alexa 488), a Diode Laser HeNe (561 nm) for Alexa 568 and a Red Diode Laser (638 nm) for Alexa 647. DAPI emission was recorded from 415 to 485 nm, FITC emission was recorded from 495 to 550 nm, Alexa 568 from 583 to 628 nm and Alexa 647, from 634 to 750 nm.

HLA-DR1 (DRB1*0101) = HLA-DR1 (DRB1*0101) (Homo sapiens, UniProt P01903+P01911, /P40L/Q125E/R42F/V115G/Y59C); test: Peptide-MHC class II binding (HLA-DR folding assay, LOCI/AlphaScreen); settings: peptide titrated, 48 h at 18 °C, LOCI, two experiments, KD values only in picture (Table S2)
Procedure: (§1) Peptide-MHC-binding assays was performed by ImmunAware (Horsholm, Denmark). Binding was measured using a Luminescent Oxygen Channeling Immunoassay (LOCI), marketed by Perkin Elmer (Hopkinton, MA, USA) as AlphaScreen. This is a nonradioactive bead-based homogenous proximity assay, where the donor beads containing a photosensitizer compound, upon excitation with light at a 680 nm wavelength, converts ambient oxygen to energy-rich, short-lived singlet oxygen; this latter is transferred to acceptor beads, in close proximity only. The acceptor beads can respond to a single oxygen with a luminescence/fluorescence cascade, leading to an amplified signal in the 520–620 nm range. There is a tag binding to the donor beads: a biotin group engineered into the HLA β chain.
(§2) The acceptor beads are linked instead to a conformation-dependent HLA class II specific antibody (L243). Thus, only when a peptide binds well the HLA class II molecule, a corrected folded HLA class II molecule is formed and can be recognized by the L243 antibody. Biotinylated recombinant HLA class II molecules were diluted from an 8 M urea buffer into a folding buffer (PBS, 20% glycerol, Protease inhibitor mix). Different peptide concentrations, between 0.13 nM and 10,000 nM, were added into the assay. The tested peptides were titrated in 5-to-8 five-fold concentration, […]. The reaction mixtures were incubated for 48 h at 18 °C to allow peptide-HLA-complex formation to reach a steady state. After incubation, 15 μL of the folding mixture was transferred to a 384-well Optiplate (Perkin Elmer), followed by addition of 15 μL of a solution containing L243 acceptor beads and streptavidin donor beads (final concentration of beads was 5 μL/mL). The plates were incubated over night at 18 °C and then measured in enVisionTM, Perkin Elmer. Assay signals measured in OD450 were plotted against the offered peptide concentrations and analyzed by non-linear regression using GraphPad Prism. The peptide concentration resulting in half saturation, the half maximal effective concentration (EC50), was estimated by fitting the experimental data to the equation: Y = Bmax*X/(KD + X), where Y is the OD450 measurement of complexes formed and X is the concentration of ligand (peptide) offered. The EC50 approximates the KD as long as the receptor concentration used is less than the KD, thus avoiding ligand depletion.

HLA-DR15 (DRB1*1501) = HLA-DR15 (DRB1*1501) (Homo sapiens, UniProt P01903+P01911); test: as above; settings: peptide titrated, 48 h at 18 °C, LOCI, two experiments, KD values only in picture (Table S2)
Procedure: as §1, §2

| Substance | Ability to transform cell-free DNA into an inducer of IFN-I by human pDCs (pDCs) | Expansion of T-cells specific for both cit-LL37 and native LL37 epitopes [1] | Concentration at which DNA binding ability is lost (human DNA) | DNA binding ability (human DNA; 3-to-5 experiments) | Presence in SLE-affected kidney biopsies and co-localization with IgG [2] | Binding to HLA-DRB1*0101 compared to cit-LL37 (HLA-DR1 (DRB1*0101)) | Binding to HLA-DRB1*0101 compared to cit-LL37 (HLA-DR1 (DRB1*0101); listed as Carb-LL37) | Binding to HLA-DRB1*1501 compared to cit-LL37 (HLA-DR15 (DRB1*1501)) | Binding to HLA-DRB1*1501 compared to cit-LL37 (HLA-DR15 (DRB1*1501); listed as Carb-LL37) |
| --- | --- | --- | --- | --- | --- | --- | --- | --- | --- |
| LLGDFFR(cit)KSKEKIGKEFKR(cit)IVQR(cit)IKDFLR(cit)NLVPR(cit)TES [cit-LL37, LL37 citrullinated at all five arginine sites] | loose ability to transforms the “cell-free” DNA into an inducer of IFN-I by human pDCs | able to expand T-cells specific for both the cit-LL37 and the native LL37 epitopes |  |  |  |  |  |  |  |
| L*LGDFFRK*SK*EK*IGKEFK*RIVQRIK*DFLRNLVPRTES [carb-LL37] |  |  | 3 µM | does not completely abolish the LL37 DNA binding ability | present in SLE-affected kidney biopsies and partially co-localizes with immunoglobulin (Ig)-G | equivalent to the binding efficiency of cit-LL37 | binds HLA-DR alleles similarly to cit-LL37 | equivalent to the binding efficiency of cit-LL37 | binds HLA-DR alleles similarly to cit-LL37 |
